Tests used:
[1] = molecular target: T1, PTPN2 (B16F10.4 cells) (Mus musculus, UniProt Q06180); assay: HiBiT Degradation B16F10.4 PTPN2; type: cell-based; conditions: 24.0 hours
T1 construct: HiBiT; host or cells: B16F10.4
T1 sequence (Q06180 1-406): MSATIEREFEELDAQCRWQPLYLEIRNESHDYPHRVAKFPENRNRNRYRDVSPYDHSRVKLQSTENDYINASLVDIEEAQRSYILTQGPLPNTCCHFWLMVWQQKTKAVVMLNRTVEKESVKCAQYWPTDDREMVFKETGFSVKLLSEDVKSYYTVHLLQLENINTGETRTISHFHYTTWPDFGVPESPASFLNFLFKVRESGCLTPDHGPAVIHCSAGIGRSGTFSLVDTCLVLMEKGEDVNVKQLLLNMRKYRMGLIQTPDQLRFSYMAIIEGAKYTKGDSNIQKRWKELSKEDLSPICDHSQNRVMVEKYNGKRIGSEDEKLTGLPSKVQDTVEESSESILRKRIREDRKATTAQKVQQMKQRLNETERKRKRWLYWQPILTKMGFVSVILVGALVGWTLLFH

[2] = molecular target: T2, PTPN2 (HiBIT-PTPN2 in 293T.109 cells) (Homo sapiens, UniProt P17706); assay: HiBiT Degradation 293T.109 PTPN2 (Nano-Glo HiBiT Lytic Assay); type: cell-based; conditions: 24.0 hours
T2 construct: expressed in transfected cells; host or cells: 293T.109 (293T WT from ATCC)
T2 sequence (P17706 1-415): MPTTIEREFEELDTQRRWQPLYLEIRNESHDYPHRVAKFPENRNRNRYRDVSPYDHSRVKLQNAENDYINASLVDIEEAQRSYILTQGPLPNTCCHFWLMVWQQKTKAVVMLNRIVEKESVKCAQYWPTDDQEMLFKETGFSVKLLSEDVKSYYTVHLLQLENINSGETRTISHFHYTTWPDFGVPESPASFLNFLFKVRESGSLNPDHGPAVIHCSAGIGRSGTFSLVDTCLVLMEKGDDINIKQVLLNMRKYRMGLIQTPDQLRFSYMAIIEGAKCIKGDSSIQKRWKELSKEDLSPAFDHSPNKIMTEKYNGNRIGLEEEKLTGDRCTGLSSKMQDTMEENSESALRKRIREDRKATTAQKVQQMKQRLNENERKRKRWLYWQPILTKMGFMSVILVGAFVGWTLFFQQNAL
Summary of the method: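 293T.109 cells with ectopic N-terminal HiBiT-tagged PTPN2 (5000/well) exposed to compounds for 24 h at 37 °C, 5% CO2; 11-point half-log titration from 10 μM top, duplicates. Remaining HiBiT-PTPN2 read as luminescence with Nano-Glo HiBiT lytic reagent, normalised to untreated cells (0%) and reagent-free wells.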

| DC50 [1] | DC50 [2] | Compound |
| --- | --- | --- |
| 0.05 to 0.2 µM | 0.05 to 0.2 µM | Cn1c(=O)n(C2CCC(=O)NC2=O)c2ccc(-c3cccc(CC(=O)Nc4cccc(CS(=O)(=O)N5CC[C@H](Nc6cccc(-c7sc(C(=O)O)c(OCC(=O)O)c7Cl)c6)CC5(C)C)c4)c3)cc21 (stereo partly drawn) [Example 192, 3-(carboxymethoxy)-4-chloro-5-(3-(((4S)-1-((3-(2-(3-(1-(2,6-dioxopiperidin-3-yl)-3-methyl-2-oxo-2,3-dihydro-1H-benzo[d]imidazol-5-yl)phenyl)acetamido)benzyl)sulfonyl)-2,2-dimethylpiperidin-4-yl)amino)phenyl)thiophene-2-carboxylic acid] |
| 0.05 to 0.2 µM | 0.2 to 1 µM | Cn1c(=O)n(C2CCC(=O)NC2=O)c2ccc(C3CCN(C(=O)Nc4cccc(CS(=O)(=O)N5CC[C@@H](Nc6cccc(-c7sc(C(=O)O)c(OCC(=O)O)c7Cl)c6)CC56CC6)c4)CC3)cc21 (stereo partly drawn) [Example 230, 3-(carboxymethoxy)-4-chloro-5-(3-(((7R)-4-((3-(4-(1-(2,6-dioxopiperidin-3-yl)-3-methyl-2-oxo-2,3-dihydro-1H-benzo[d]imidazol-5-yl)piperidine-1-carboxamido)benzyl)sulfonyl)-4-azaspiro[2.5]octan-7-yl)amino)phenyl)thiophene-2-carboxylic acid] |
| < 0.05 µM | 0.05 to 0.2 µM | CC1(C)C[C@@H](Nc2cccc(-c3sc(C(=O)O)c(OCC(=O)O)c3Cl)c2)CCN1S(=O)(=O)Cc1cccc(NC(=O)N2CCC(Cc3ccc4c5c(cccc35)C(=O)N4C3CCC(=O)NC3=O)CC2)c1 (stereo partly drawn) [Example 158, 3-(carboxymethoxy)-4-chloro-5-(3-(((4S)-1-((3-(4-((1-(2,6-dioxopiperidin-3-yl)-2-oxo-1,2-dihydrobenzo[cd]indol-6-yl)methyl)piperidine-1-carboxamido)benzyl)sulfonyl)-2,2-dimethylpiperidin-4-yl)amino)phenyl)thiophene-2-carboxylic acid] |
| 0.2 to 1 µM | 0.2 to 1 µM | O=C(O)COc1c(C(=O)O)sc(-c2cccc(NC3CCN(S(=O)(=O)Cc4cccc(NC(=O)CNc5ccc6c(c5)C(=O)N(C5CCC(=O)NC5=O)C6=O)c4)CC3)c2)c1Cl (centres unmarked) [Example 23, 3-(carboxymethoxy)-4-chloro-5-[3-[[1-[[3-[[2-[[2-(2,6-dioxo-3-piperidyl)-1,3-dioxo-isoindolin-5-yl]amino]acetyl]amino]phenyl]methylsulfonyl]-4-piperidyl]amino]phenyl]thiophene-2-carboxylic acid] |
| 0.2 to 1 µM | 0.05 to 0.2 µM | CC1(C)C[C@@H](Nc2cccc(-c3sc(C(=O)O)c(OCC(=O)O)c3Cl)c2)CCN1S(=O)(=O)Cc1cccc(NC(=O)C2CCN(C(=O)CNc3cccc4c3C(=O)N(C3CCC(=O)NC3=O)C4=O)CC2)c1 (stereo partly drawn) [Example 32, 3-(carboxymethoxy)-4-chloro-5-[3-[[(4S)-1-[[3-[[1-[2-[[2-(2,6-dioxo-3-piperidyl)-1,3-dioxo-isoindolin-4-yl]amino]acetyl]piperidine-4-carbonyl]amino]phenyl]methylsulfonyl]-2,2-dimethyl-4-piperidyl]amino]phenyl]thiophene-2-carboxylic acid] |
| < 0.05 µM | < 0.05 µM | Cn1c(=O)n(C2CCC(=O)NC2=O)c2ccc(C3CCN(C(=O)Nc4cccc(CS(=O)(=O)N5CC[C@H](Nc6cccc(-c7sc(C(=O)O)c(OCC(=O)O)c7Cl)c6)CC5(C)C)c4)CC3(F)F)cc21 (stereo partly drawn) [Example 147, 3-(carboxymethoxy)-4-chloro-5-[3-[[(4S)-1-[[3-[[4-[1-(2,6-dioxo-3-piperidyl)-3-methyl-2-oxo-benzimidazol-5-yl]-3,3-difluoro-piperidine-1-carbonyl]amino]phenyl]methylsulfonyl]-2,2-dimethyl-4-piperidyl]amino]phenyl]thiophene-2-carboxylic acid] |
| 0.05 to 0.2 µM | 0.2 to 1 µM | Cn1c(=O)n(C2CCC(=O)NC2=O)c2ccc(C3CCN(C(=O)Nc4cccc(CS(=O)(=O)N5CCC(Oc6cccc(-c7sc(C(=O)O)c(OCC(=O)O)c7Cl)c6)CC5)c4)CC3)cc21 (centres unmarked) [Example 103, 3-(Carboxymethoxy)-4-chloro-5-[3-[[1-[[3-[[4-[1-(2,6-dioxo-3-piperidyl)-3-methyl-2-oxo-benzimidazol-S-yl]piperidine-1-carbonyl]amino]phenyl]methylsulfonyl]-4-piperidyl]oxy]phenyl]thiophene-2-carboxylic acid] |
| 0.2 to 1 µM | 0.2 to 1 µM | Cn1c(=O)n(C2CCC(=O)NC2=O)c2cccc(OC3CCN(C(=O)Nc4cccc(CS(=O)(=O)N5CC[C@H](Nc6cccc(-c7sc(C(=O)O)c(OCC(=O)O)c7Cl)c6)CC5(C)C)c4)CC3)c21 (some centres unmarked) [Example 151] |
| 0.05 to 0.2 µM | 0.05 to 0.2 µM | Cn1c(=O)n(C2CCC(=O)NC2=O)c2ccc(C3CCN(CC(=O)Nc4cccc(CS(=O)(=O)N5CCC(Nc6cccc(-c7sc(C(=O)O)c(OCC(=O)O)c7Cl)c6)CC5)c4)CC3)cc21 (centres unmarked) [Example 55, 3-(carboxymethoxy)-4-chloro-5-[3-[[1-[[3-[[2-[4-[1-(2,6-dioxo-3-piperidyl)-3-methyl-2-oxo-benzimidazol-5-yl]-1-piperidyl]acetyl]amino]phenyl]methylsulfonyl]-4-piperidyl]amino]phenyl]thiophene-2-carboxylic acid] |
| ≥ 1 µM | 0.05 to 0.2 µM | O=C(O)COc1c(C(=O)O)sc(-c2cccc(NC3CCN(S(=O)(=O)Cc4cccc(NC(=O)C5CCN(C(=O)CNc6cccc7c6CN(C6CCC(=O)NC6=O)C7=O)CC5)c4F)CC3)c2)c1Cl (centres unmarked) [Example 73, 3-(carboxymethoxy)-4-chloro-5-(3-((1-((3-(1-((2-(2,6-dioxopiperidin-3-yl)-1-oxoisoindolin-4-yl)glycyl)piperidine-4-carboxamido)-2-fluorobenzyl)sulfonyl)piperidin-4-yl)amino)phenyl)thiophene-2-carboxylic acid] |
| 0.2 to 1 µM | < 0.05 µM | CC1(C)C[C@@H](Nc2cccc(-c3sc(C(=O)O)c(OCC(=O)O)c3Cl)c2)CCN1S(=O)(=O)Cc1cccc(NC(=O)COC2CCN(C(=O)CNc3cccc4c3CN(C3CCC(=O)NC3=O)C4=O)CC2)c1 (some centres unmarked) [Example 90] |
| 0.05 to 0.2 µM | 0.05 to 0.2 µM | Cn1c(=O)n(C2CCC(=O)NC2=O)c2ccc(N3CC4(CCN(C(=O)Nc5cccc(CS(=O)(=O)N6CCC(Nc7cccc(-c8sc(C(=O)O)c(OCC(=O)O)c8Cl)c7)CC6)c5)CC4)C3)cc21 (centres unmarked) [Example 113, 3-(carboxymethoxy)-4-chloro-5-[3-[[1-[[3-[[2-[1-(2,6-dioxo-3-piperidyl)-3-methyl-2-oxo-benzimidazol-5-yl]-2,7-diazaspiro[3.5]nonane-7-carbonyl]amino]phenyl]methylsulfonyl]-4-piperidyl]amino]phenyl]thiophene-2-carboxylic acid] |
| < 0.05 µM | < 0.05 µM | CC(C)n1c(=O)n(C2CCC(=O)NC2=O)c2ccc(C3CCN(C(=O)Nc4cccc(CS(=O)(=O)N5CC[C@H](Nc6cccc(-c7sc(C(=O)O)c(OCC(=O)O)c7Cl)c6)CC5(C)C)c4)CC3(F)F)cc21 (stereo partly drawn) [Example 181, 3-(carboxymethoxy)-4-chloro-5-[3-[[(4S)-1-[[3-[[4-[1-(2,6-dioxo-3-piperidyl)-3-isopropyl-2-oxo-benzimidazol-5-yl]-3,3-difluoro-piperidine-1-carbonyl]amino]phenyl]methylsulfonyl]-2,2-dimethyl-4-piperidyl]amino]phenyl]thiophene-2-carboxylic acid] |
